# Test system: SARS-CoV-2 (WT, D614G)
# Assay type: cell-based
# Conditions: 50 µM
substance,measurement,value
alpha-1-antitrypsin [A1AT],inhibition of SARS-CoV-2 replication / infection,45%

# Reference: US20240350597A1, “PROTEASE INHIBITORS” (University College Dublin, priority 2023, published 2024)
